# According to PubChem BioAssay (NCI):
#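 Each compound was tested at five concentrations against cells in 96-well plates for 48 hours. Definition used: TGI = concentration required for complete inhibition of growth.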
# Key:
# Experiment in all cases: NCI tumour cell line growth inhibition, 48 h
# P388 leukemia = tested on: P388 leukemia
# DMS 273 small cell lung = tested on: DMS 273 small cell lung
# SN12K1 renal = tested on: SN12K1 renal
# KM20L2 colon = tested on: KM20L2 colon
# HOP-18 NSCLC = tested on: HOP-18 NSCLC
# XF 498 CNS = tested on: XF 498 CNS
# P388/ADR leukemia = tested on: P388/ADR leukemia
# LXFL 529 NSCLC = tested on: LXFL 529 NSCLC
# RXF-631 renal = tested on: RXF-631 renal
# 786-0 renal = tested on: 786-0 renal
smiles,measurement,setting,value
C=C(C)C(=O)OC1CCC2(C)C(CCC3C2CCC2(C)C(c4ccc(=O)oc4)CC4OC432)C1 (stereo not drawn),TGI,P388 leukemia,15.5 µM
same,TGI,DMS 273 small cell lung,20.5 µM
same,TGI,SN12K1 renal,17.6 µM
same,TGI,KM20L2 colon,40.4 µM
same,TGI,HOP-18 NSCLC,104 µM
same,TGI,XF 498 CNS,21 µM
same,TGI,P388/ADR leukemia,31.7 µM
Clc1ccccc1/C=C/c1cscn1,TGI,LXFL 529 NSCLC,> 100 µM
same,TGI,XF 498 CNS,> 100 µM
C=CC1(C)CCC2=C(CCC3C(C)(C(=O)OC)CCCC23C)C1=O (stereo not drawn),TGI,LXFL 529 NSCLC,36.4 µM
same,TGI,KM20L2 colon,40.3 µM
same,TGI,RXF-631 renal,31.6 µM
O=C(N/N=C\c1cccc(O)c1)c1ccncc1,TGI,786-0 renal,> 100 µM
